Data taken from PubChem BioAssay AID1845216 (Molecular Pharmacology Branch, DTP, NCI, 2023).

Test system: SW 982 tumor spheroid viability
Test: Anticancer human tumor SW 982 cell line growth inhibition;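 note: spheroids exposed to compound for 7 days before readout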
Settings: spheroids with HUVEC and MSC; for IC50: curve of first compound; for viability, T/C: stronger effect = lower value
In short: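 Complex tumor spheroids combined malignant cells with endothelial cells and mesenchymal stem cells. DNA-damaging drugs and DNA repair inhibitors were tested alone and in combination, at half-log dilutions down from clinical Cmax (top 10 microM if Cmax unknown), 0.25% DMSO final.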

[1] = second compound 30 pM, first compound 0.00949 µM
[2] = second compound 30 pM, first compound 0.03 µM
[3] = second compound 30 pM, first compound 0.0949 µM
[4] = second compound 30 pM, first compound 0.3 µM
[5] = second compound 30 pM, first compound 0.949 µM
[6] = second compound 30 pM, first compound 3 µM
[7] = second compound 94.9 pM, first compound 0.00949 µM
[8] = second compound 94.9 pM, first compound 0.03 µM
[9] = second compound 94.9 pM, first compound 0.0949 µM
[10] = second compound 94.9 pM, first compound 0.3 µM
[11] = second compound 94.9 pM, first compound 0.949 µM
[12] = second compound 94.9 pM, first compound 3 µM
[13] = second compound 0.0003 µM, first compound 0.00949 µM
[14] = second compound 0.0003 µM, first compound 0.03 µM
[15] = second compound 0.0003 µM, first compound 0.0949 µM
[16] = second compound 0.0003 µM, first compound 0.3 µM
[17] = second compound 0.0003 µM, first compound 0.949 µM
[18] = second compound 0.0003 µM, first compound 3 µM
[19] = second compound 0.000949 µM, first compound 0.00949 µM
[20] = second compound 0.000949 µM, first compound 0.03 µM
[21] = second compound 0.000949 µM, first compound 0.0949 µM
[22] = second compound 0.000949 µM, first compound 0.3 µM
[23] = second compound 0.000949 µM, first compound 0.949 µM
[24] = second compound 0.000949 µM, first compound 3 µM
[25] = second compound 0.003 µM, first compound 0.00949 µM
[26] = second compound 0.003 µM, first compound 0.03 µM
[27] = second compound 0.003 µM, first compound 0.0949 µM
[28] = second compound 0.003 µM, first compound 0.3 µM
[29] = second compound 0.003 µM, first compound 0.949 µM
[30] = second compound 0.003 µM, first compound 3 µM

**Q.** Which IC50 (second compound 30 pM) does the source give for CNCc1ccc(-c2cc(-c3nc(-c4ccc(S(=O)(=O)C(C)C)cc4)cnc3N)on2)cc1 + COc1cc2c(cc1O)CCNC21CSC2c3c(OC(C)=O)c(C)c4c(c3C(COC1=O)N1C(O)C3Cc5cc(C)c(OC)c(O)c5C(C21)N3C)OCO4 here?
**A.** 0.211 µM

**Q.** What about the IC50 (second compound 94.9 pM) of the same molecule?
**A.** 0.131 µM

**Q.** What about the IC50 (second compound 0.0003 µM) of the same molecule?
**A.** 0.107 µM

**Q.** And the IC50 (second compound 0.000949 µM)?
**A.** < 0.00949 µM

**Q.** What about the IC50 (second compound 0.003 µM) of the same molecule?
**A.** < 0.00949 µM

**Q.** What about the viability, T/C [1] of the same molecule?
**A.** 99.6%

**Q.** What about the viability, T/C [2] of the same molecule?
**A.** 95.6%

**Q.** What about the viability, T/C [3] of the same molecule?
**A.** 78.3%

**Q.** What about the viability, T/C [4] of the same molecule?
**A.** 33.4%

**Q.** What about the viability, T/C [5] of the same molecule?
**A.** 23.8%

**Q.** What about the viability, T/C [6] of the same molecule?
**A.** 2.48%

**Q.** And the viability, T/C [7]?
**A.** 100%

**Q.** And the viability, T/C [8]?
**A.** 94%

**Q.** What about the viability, T/C [9] of the same molecule?
**A.** 55.9%

**Q.** And the viability, T/C [10]?
**A.** 26.4%

**Q.** What about the viability, T/C [11] of the same molecule?
**A.** 18.9%

**Q.** And the viability, T/C [12]?
**A.** 2.12%

**Q.** And the viability, T/C [13]?
**A.** 84.7%

**Q.** What about the viability, T/C [14] of the same molecule?
**A.** 81%

**Q.** And the viability, T/C [15]?
**A.** 47.9%

**Q.** What about the viability, T/C [16] of the same molecule?
**A.** 28.2%

**Q.** What about the viability, T/C [17] of the same molecule?
**A.** 16.5%

**Q.** What about the viability, T/C [18] of the same molecule?
**A.** 2.22%

**Q.** And the viability, T/C [19]?
**A.** 49.3%

**Q.** What about the viability, T/C [20] of the same molecule?
**A.** 39.2%

**Q.** And the viability, T/C [21]?
**A.** 28.2%

**Q.** What about the viability, T/C [22] of the same molecule?
**A.** 15.9%

**Q.** What about the viability, T/C [23] of the same molecule?
**A.** 9.5%

**Q.** What about the viability, T/C [24] of the same molecule?
**A.** 0.69%

**Q.** What about the viability, T/C [25] of the same molecule?
**A.** 0.4%

**Q.** And the viability, T/C [26]?
**A.** 1.22%

**Q.** What about the viability, T/C [27] of the same molecule?
**A.** 0.92%

**Q.** What about the viability, T/C [28] of the same molecule?
**A.** 0.5%

**Q.** And the viability, T/C [29]?
**A.** 1.07%

**Q.** And the viability, T/C [30]?
**A.** 0.31%

**Q.** Which IC50 (second compound 30 pM) does the source give for Cc1sc2c(c1C)C(c1ccc(Cl)cc1)=NC(CC(=O)Nc1ccc(O)cc1)c1nnc(C)n1-2 (stereo not given) + COc1cc2c(cc1O)CCNC21CSC2c3c(OC(C)=O)c(C)c4c(c3C(COC1=O)N1C(O)C3Cc5cc(C)c(OC)c(O)c5C(C21)N3C)OCO4 here?
**A.** 0.257 µM

**Q.** What about the IC50 (second compound 94.9 pM) of the same molecule?
**A.** 0.344 µM

**Q.** What about the IC50 (second compound 0.0003 µM) of the same molecule?
**A.** 0.482 µM

**Q.** And the IC50 (second compound 0.000949 µM)?
**A.** 0.00949 µM

**Q.** What about the IC50 (second compound 0.003 µM) of the same molecule?
**A.** < 0.00949 µM

**Q.** And the viability, T/C [1]?
**A.** 95.5%

**Q.** And the viability, T/C [2]?
**A.** 94.6%

**Q.** What about the viability, T/C [3] of the same molecule?
**A.** 75.5%

**Q.** What about the viability, T/C [4] of the same molecule?
**A.** 46.2%

**Q.** What about the viability, T/C [5] of the same molecule?
**A.** 28.5%

**Q.** And the viability, T/C [6]?
**A.** 23.6%

**Q.** What about the viability, T/C [7] of the same molecule?
**A.** 97.4%

**Q.** And the viability, T/C [8]?
**A.** 96.7%

**Q.** What about the viability, T/C [9] of the same molecule?
**A.** 71.1%

**Q.** And the viability, T/C [10]?
**A.** 53.8%

**Q.** And the viability, T/C [11]?
**A.** 33.2%

**Q.** What about the viability, T/C [12] of the same molecule?
**A.** 21.6%

**Q.** What about the viability, T/C [13] of the same molecule?
**A.** 76.6%

**Q.** What about the viability, T/C [14] of the same molecule?
**A.** 82.5%

**Q.** What about the viability, T/C [15] of the same molecule?
**A.** 70.4%

**Q.** What about the viability, T/C [16] of the same molecule?
**A.** 68%

**Q.** And the viability, T/C [17]?
**A.** 24.9%

**Q.** And the viability, T/C [18]?
**A.** 13.6%

**Q.** What about the viability, T/C [19] of the same molecule?
**A.** 41.4%

**Q.** And the viability, T/C [20]?
**A.** 41.3%

**Q.** What about the viability, T/C [21] of the same molecule?
**A.** 64.8%

**Q.** And the viability, T/C [22]?
**A.** 19.2%

**Q.** And the viability, T/C [23]?
**A.** 4.8%

**Q.** What about the viability, T/C [24] of the same molecule?
**A.** 3.12%

**Q.** And the viability, T/C [25]?
**A.** 0.7%

**Q.** What about the viability, T/C [26] of the same molecule?
**A.** 8.8%

**Q.** What about the viability, T/C [27] of the same molecule?
**A.** 0.33%

**Q.** And the viability, T/C [28]?
**A.** 0.26%

**Q.** What about the viability, T/C [29] of the same molecule?
**A.** 0.37%

**Q.** What about the viability, T/C [30] of the same molecule?
**A.** 0.99%

**Q.** With Cn1ncnc1[C@H]1c2n[nH]c(=O)c3cc(F)cc(c23)N[C@@H]1c1ccc(F)cc1 + COc1cc2c(cc1O)CCNC21CSC2c3c(OC(C)=O)c(C)c4c(c3C(COC1=O)N1C(O)C3Cc5cc(C)c(OC)c(O)c5C(C21)N3C)OCO4 as the molecule, how does the IC50 (second compound 30 pM) read?
**A.** > 3 µM

**Q.** And the IC50 (second compound 94.9 pM)?
**A.** 2.74 µM

**Q.** What about the IC50 (second compound 0.0003 µM) of the same molecule?
**A.** 1.83 µM

**Q.** What about the IC50 (second compound 0.000949 µM) of the same molecule?
**A.** < 0.00949 µM

**Q.** And the IC50 (second compound 0.003 µM)?
**A.** < 0.00949 µM

**Q.** What about the viability, T/C [1] of the same molecule?
**A.** 93.6%

**Q.** And the viability, T/C [2]?
**A.** 89.1%

**Q.** What about the viability, T/C [3] of the same molecule?
**A.** 85.9%

**Q.** And the viability, T/C [4]?
**A.** 85%

**Q.** And the viability, T/C [5]?
**A.** 76.3%

**Q.** And the viability, T/C [6]?
**A.** 52.6%

**Q.** What about the viability, T/C [7] of the same molecule?
**A.** 80.7%

**Q.** And the viability, T/C [8]?
**A.** 85.3%

**Q.** What about the viability, T/C [9] of the same molecule?
**A.** 82%

**Q.** What about the viability, T/C [10] of the same molecule?
**A.** 82%

**Q.** What about the viability, T/C [11] of the same molecule?
**A.** 66.3%

**Q.** What about the viability, T/C [12] of the same molecule?
**A.** 48.6%

**Q.** And the viability, T/C [13]?
**A.** 76%

**Q.** What about the viability, T/C [14] of the same molecule?
**A.** 73.5%

**Q.** What about the viability, T/C [15] of the same molecule?
**A.** 70%

**Q.** What about the viability, T/C [16] of the same molecule?
**A.** 76.1%

**Q.** What about the viability, T/C [17] of the same molecule?
**A.** 54.6%

**Q.** And the viability, T/C [18]?
**A.** 46.6%

**Q.** What about the viability, T/C [19] of the same molecule?
**A.** 32.3%

**Q.** What about the viability, T/C [20] of the same molecule?
**A.** 28.7%

**Q.** And the viability, T/C [21]?
**A.** 25.2%

**Q.** And the viability, T/C [22]?
**A.** 27%

**Q.** What about the viability, T/C [23] of the same molecule?
**A.** 14.8%

**Q.** And the viability, T/C [24]?
**A.** 2.84%

**Q.** And the viability, T/C [25]?
**A.** 0.32%

**Q.** What about the viability, T/C [26] of the same molecule?
**A.** 0.45%

**Q.** And the viability, T/C [27]?
**A.** 0.37%

**Q.** What about the viability, T/C [28] of the same molecule?
**A.** 0.38%

**Q.** And the viability, T/C [29]?
**A.** 0.36%

**Q.** What about the viability, T/C [30] of the same molecule?
**A.** 0.91%
